US5424292A (Depha Team s.r.l., priority 1990, dated 1995)

Tests used:
[1] = male Fischer rats, doses equivalent to 60 mg/kg of 5-ASA via metal probe into stomach; for Recovery percentages of 5-ASA + N-acetyl-5-ASA in feces by HPLC: feces withdrawn at 2 hour intervals for 48 hours; for Recovery percentages of 5-ASA + N-acetyl-5-ASA in urine by HPLC: urine withdrawn at 2 hour intervals for 48 hours
Method: Particularly, male Fischer rats weighing about 200-250 g were used.
The rats were then placed in metabolic cages, from which feces and urine were withdrawn at 2 hour intervals for 48 hours.

[2] = cited from earlier work

N[C@@H](CCC(=O)O)C(=O)Nc1ccc(O)c(C(=O)O)c1 [Compound 2, (N-L-glutamyl)-amino-2-salicylic acid]
Recovery percentages of 5-ASA + N-acetyl-5-ASA in feces by HPLC [1]: 45 ± 4%
Recovery percentages of 5-ASA + N-acetyl-5-ASA in urine by HPLC [1]: 34 ± 4%

Nc1ccc(O)c(C(=O)O)c1 [Compound 5-ASA, 5-aminosalicylic acid]
Recovery percentages of 5-ASA + N-acetyl-5-ASA in feces by HPLC [1]: 05 ± 3%
Recovery percentages of 5-ASA + N-acetyl-5-ASA in urine by HPLC [1]: 79 ± 3%
Stability at the gastric pH [2]: not stable at the gastric pH
